This note sets out measurements from ChEMBL document CHEMBL1138899, “Acyclic nucleoside analogues as inhibitors of Plasmodium falciparum dUTPase” (J Med Chem, 2006).

A value given as a limit tells only on which side of the number the result lay.

For test [1], the target named is T1, dUTP pyrophosphatase (Plasmodium falciparum 3D7, UniProt Q8II92).
T1 sequence (Q8II92 whole entry): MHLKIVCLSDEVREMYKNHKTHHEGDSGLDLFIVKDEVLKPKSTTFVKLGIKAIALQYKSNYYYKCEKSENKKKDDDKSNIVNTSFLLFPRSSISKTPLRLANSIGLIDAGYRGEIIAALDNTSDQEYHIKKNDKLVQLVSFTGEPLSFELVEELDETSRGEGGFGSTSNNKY
Kind of test: Inhibition of Plasmodium falciparum dUTPase.

The target of test [2] is T2, Deoxyuridine 5'-triphosphate nucleotidohydrolase, mitochondrial (Homo sapiens, UniProt P33316).
T2 sequence (P33316 whole entry): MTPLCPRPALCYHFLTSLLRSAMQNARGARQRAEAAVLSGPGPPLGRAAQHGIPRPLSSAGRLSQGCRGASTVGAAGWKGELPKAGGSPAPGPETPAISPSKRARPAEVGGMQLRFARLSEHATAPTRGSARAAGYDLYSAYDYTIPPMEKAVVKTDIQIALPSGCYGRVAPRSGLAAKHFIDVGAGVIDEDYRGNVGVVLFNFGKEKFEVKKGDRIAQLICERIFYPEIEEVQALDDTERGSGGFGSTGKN
Kind of test: Inhibition of human recombinant dUTPase.

The subject of test [3] is Plasmodium falciparum. As to the kind of experiment: Antiplasmodial activity against Plasmodium falciparum. The format is functional, organism-based.
Test [4] concerns L6. Kind of test: Cytotoxicity against rat L6 cells. It counts as functional, cell-based.
Test [5] addresses T3, dUTP pyrophosphatase (Plasmodium falciparum 3D7) (UniProt Q8II92).
T3 sequence (whole entry): T1 sequence (Q8II92 whole entry)
Kind of test: Selectivity index, human dUTPase/Plasmodium falciparum dUTPase.

By Ki is commonly meant the equilibrium dissociation constant of an inhibitor or competing ligand from its target. For orientation: IC50 means the point on the concentration scale where inhibition reaches its midpoint. Read a low IC50 as greater potency. Turning to `O=c1ccn(C/C=C\COC(c2ccccc2)(c2ccccc2)c2ccccc2)c(=O)[nH]1`, the Ki was 1.2 µM in test [1] and 5.2 µM in test [2]. For the same compound, the figures for the IC50 in test [3] and in test [4] were 3.5 µM and 39 µM, respectively. This compound also showed a Selectivity index in test [5] of 4.
Regarding `O=c1ccn(CCCCCOC(c2ccccc2)(c2ccccc2)c2ccccc2)c(=O)[nH]1`, the Ki was 2 µM in test [1] and over 1000 µM in test [2]. Moreover, the IC50 in test [3] came out at 1.1 µM; in test [4], 24 µM. Moreover, the Selectivity index in test [5] was over 500.
As for `O=c1ccn(CCC(CO)CNC(c2ccccc2)(c2ccccc2)c2ccccc2)c(=O)[nH]1` (stereo not given), the inhibition constant Ki turned out to be 0.24 µM in test [1] and 5.7 µM in test [2]. In addition, the IC50 was determined as 3.2 µM in test [3] and 55 µM in test [4].
Take `O=c1ccn(CCCO[Si](c2ccccc2)(c2ccccc2)c2ccccc2)c(=O)[nH]1`: the Ki in test [1] amounted to 1.6 µM; in test [2] it was 25 µM. The IC50 came out at 0.58 µM in test [3] and 70 µM in test [4]. Further, the Selectivity index in test [5] worked out at 16.
The corresponding values for `O=c1ccn(CCCCCO[Si](c2ccccc2)(c2ccccc2)c2ccccc2)c(=O)[nH]1` are 3.8 µM, over 1000 µM, 0.38 µM, 47 µM and over 265.
The corresponding values for `CC(C)(C)[Si](C)(C)OCCOCn1ccc(=O)[nH]c1=O` are 44 µM, 63 µM, 62 µM, over 299 µM and 1.4.
Turning to `CC(C)(C)OC(=O)NCCCCn1ccc(=O)[nH]c1=O`, the results for the Ki in test [1] and in test [2] were 112 µM and over 1000 µM, respectively. Also, in test [3], half-maximal inhibition (IC50) required 17 µM. Further, the Selectivity index in test [5] is over 8.
For `O=C(NCCCCn1ccc(=O)[nH]c1=O)OCc1ccccc1`, in that order: 17 µM, over 1000 µM, 15 µM and over 60.
For `O=c1ccn(CCCOC(c2ccccc2)(c2ccccc2)c2ccccc2)c(=O)[nH]1`, the results for the inhibitory constant (Ki) in test [1] and in test [2] were 87 µM and 313 µM, respectively. Further, the IC50 was 7.5 µM in test [3] and 34 µM in test [4]. This compound also had a Selectivity index in test [5] of 4.
Turning to `O=c1ccn(CCCNC(c2ccccc2)(c2ccccc2)c2ccccc2)c(=O)[nH]1`, the values for the Ki in test [1] and in test [2] were 0.2 µM and 1.4 µM, respectively. Moreover, the IC50 in test [3] worked out at 4.4 µM; in test [4] it was 107 µM. In addition, the Selectivity index in test [5] stood at 7.
In the case of `O=c1ccn([C@H]2C[C@H](F)[C@@H](COC(c3ccccc3)(c3ccccc3)c3ccccc3)O2)c(=O)[nH]1`, the Ki in test [2] came out at 457 µM. In addition, in test [3], it took 2 µM to reach half-maximal inhibition (IC50).
`O=C(OCCOCn1ccc(=O)[nH]c1=O)c1ccccc1`: the Ki in test [1] is 98 µM; in test [2], 311 µM. The values for the IC50 in test [3] and in test [4] were 127 µM and 202 µM, respectively. In test [5], the Selectivity index turned out to be 3.
The corresponding values for `CC(C)(C)[Si](OCCCCCCn1ccc(=O)[nH]c1=O)(c1ccccc1)c1ccccc1` are 8.5 µM, over 1000 µM, 3.9 µM, 18 µM and over 118.
In the case of `CC(=O)OCC(CCn1ccc(=O)[nH]c1=O)CNC(c1ccccc1)(c1ccccc1)c1ccccc1` (stereo not given), the Ki is 1.3 µM in test [1] and 74 µM in test [2]. In addition, the IC50 in test [3] came to 2.8 µM; in test [4], 37 µM.
On to `O=c1ccn(CCCCCCO)c(=O)[nH]1`, for which the results for the Ki in test [1] and in test [2] were over 1000 µM and 636 µM, respectively. In test [3], this compound gave an IC50 of 19 µM.
As to `O=c1ccn(CCCCCNC(c2ccccc2)(c2ccccc2)c2ccccc2)c(=O)[nH]1`, in test [2], the inhibitory constant (Ki) was over 1000 µM. Further, the figures for the IC50 in test [3] and in test [4] were 2.2 µM and 39 µM, respectively. For the same compound, in test [5], the Selectivity index is over 233.
Regarding `O=c1ccn(CCCO)c(=O)[nH]1`, the values for the Ki in test [1] and in test [2] were 368 µM and over 1000 µM, respectively. Moreover, the IC50 in test [3] is over 29 µM. Moreover, the Selectivity index in test [5] is over 2.
`[N-]=[N+]=NCC(CCOC(c1ccccc1)(c1ccccc1)c1ccccc1)Cn1ccc(=O)[nH]c1=O` (stereo not given): the results for the Ki in test [1] and in test [2] were 23 µM and over 1000 µM, respectively. Moreover, the figures for the IC50 in test [3] and in test [4] were 0.64 µM and 18 µM, respectively.
The corresponding values for `O=c1ccn(CC(CCO)COC(c2ccccc2)(c2ccccc2)c2ccccc2)c(=O)[nH]1` (stereo not given) are 0.9 µM, 21 µM, 1.9 µM and 57 µM.
In the case of `O=C(OCCCCCCn1ccc(=O)[nH]c1=O)c1ccccc1`, the Ki was 32 µM in test [1] and over 1000 µM in test [2]. This compound also registered an IC50 in test [3] of 3.4 µM. In test [5], this compound came in with a Selectivity index of over 31.
On to `CC(C)(C)[Si](C)(C)OCCCn1ccc(=O)[nH]c1=O`, for which the Ki in test [1] and in test [2] was 73 µM in each case. Further, the IC50 in test [3] is over 18 µM; in test [4], 192 µM. In test [5], this compound displayed a Selectivity index of 1.
For the compound `O=c1ccn(CC(CO)CCOC(c2ccccc2)(c2ccccc2)c2ccccc2)c(=O)[nH]1` (stereo not given), the Ki in test [1] amounted to 2.2 µM; in test [2], 260 µM. Besides, the IC50 in test [3] came out at 1.2 µM; in test [4], 33 µM.
As for `OC(c1ccccc1)(c1ccccc1)c1ccccc1` [TRIPHENYLMETHANOL], the Ki in test [1] and in test [2] was over 1000 µM throughout. In test [3], this compound displayed a half-maximal inhibitory concentration (IC50) of 12 µM.
As to `O=c1ccn([C@H]2C[C@H](O)[C@@H](CNC(c3ccccc3)(c3ccccc3)c3ccccc3)O2)c(=O)[nH]1`, in test [2], the inhibition constant Ki turned out to be 46 µM. For the same compound, the results for the IC50 in test [3] and in test [4] were 4.5 µM and 44 µM, respectively.
Consider `O[Si](c1ccccc1)(c1ccccc1)c1ccccc1`, for which the Ki in test [1] and in test [2] was over 1000 µM throughout. The IC50 in test [3] came to 0.65 µM; in test [4], 138 µM.
Turning to `O=c1ccn(CCCCO)c(=O)[nH]1`, the Ki in test [1] and in test [2] was over 1000 µM throughout. The same compound had an IC50 in test [3] of 235 µM.
For the compound `CC(C)(C)[Si](C)(C)O`, the IC50 in test [3] is over 37 µM; in test [4], over 680 µM.
With `O=c1ccn(CCCCCO)c(=O)[nH]1`, the inhibition constant (Ki) in test [1] and in test [2] was over 1000 µM each time. Further, the figures for the IC50 in test [3] and in test [4] were 20 µM and over 454 µM, respectively.
On to `O=c1ccn([C@H]2C[C@H](O)[C@@H](COC(c3ccccc3)(c3ccccc3)c3ccccc3)O2)c(=O)[nH]1`, for which the Ki in test [2] was found to be 18 µM. Also, the half-inhibitory concentration (IC50) in test [3] was 6 µM; in test [4], 192 µM. This compound showed a Selectivity index in test [5] of 10.
For the compound `O=C(OCCCCn1ccc(=O)[nH]c1=O)c1ccccc1`, the figures for the Ki in test [1] and in test [2] were 224 µM and 496 µM, respectively. Besides, the IC50 in test [3] is 38 µM. In addition, the Selectivity index in test [5] stood at 2.
In the case of `O=c1ccn([C@H]2C[C@H](O)[C@@H](CO[Si](c3ccccc3)(c3ccccc3)c3ccccc3)O2)c(=O)[nH]1`, in test [3], the half-maximal inhibitory concentration (IC50) amounted to 1.1 µM.
As for `O=C(OCCCn1ccc(=O)[nH]c1=O)c1ccccc1`, the Ki in test [1] was determined as 9.2 µM; in test [2], 898 µM. The compound further gave an IC50 in test [3] of over 18 µM. In test [5], this compound displayed a Selectivity index of over 97.
For the compound `CC(C)(C)OC(=O)NCC(CCn1ccc(=O)[nH]c1=O)COC(c1ccccc1)(c1ccccc1)c1ccccc1` (stereo not given), the Ki in test [1] is 2.5 µM; in test [2], over 1000 µM. Moreover, in test [3], the 50% inhibitory concentration (IC50) was 0.9 µM.
